Experimental data from patent publication US4406888A, “Aqueous micellar solutions of levonantradol and N-methyllevonantradol and lyophilic forms thereof for reconstitution” (Pfizer Inc., priority 1981, dated 1983).
Structures can show the parent of a compound that is named as a salt.

What was measured:
[1] = Water solubility in micellar solutions of Polysorbate 80 USP; assay type: physicochemical; conditions: for Solubility: 25° C., pH 5.0, based on 88.8% activity
Experimental: This temperature dependence of water solubilty of active ingredient is overcome by the use of sufficient concentration of amphiphile above the cmc such that the solubility of active ingredient is […] at said lowest temperature. The water solubility of active ingredients increases with increasing concentration above the cmc as is shown below for levonantradol in micellar solutions of Polysorbate 80 USP at pH 5.0 and 25° C.

[2] = Stability of the active ingredient upon storage (general statement); assay type: physicochemical; conditions: particularly in solution
[3] = accelerated stability studies, at least nine weeks, 37° C.
Experimental: The procedure comprises dissolving the Polysorbate 80 USP in about 60% of the required water (previously degassed to remove dissolved air) at room temperature. […] The pharmaceutical necessities; i.e., mannitol, sodium citrate and sodium metabisulfite were then added together with about 20-25% of the remaining volume of water required. The pH was adjusted to 5.5 by addition of hydrochloric acid (10%) and the balance of water then added. The resulting formulation was made sterile by filtration and stored in amber vials sealed under a nitrogen atmosphere.
The samples are analyzed for activity by a HPLC method using a Chromegabond C-8 column (silica silylated with octyltrichlorosilane, available from E. S. Industries, 8 South Maple Avenue, Marlton, N.J. 08053). The column is 4.6 mm I.D.×30 cm.; the mobile phase is 60% acetonitrile-40% phosphate buffer (0.05 M, pH 6.3) and the flow rate is 2 ml. per minute. Detection is by UV at 210 nm.

Row | SMILES | water solubility ([1]; with decreasing temperature) | stability upon storage [2] | stability in micellar solutions [3] | Solubility ([1]; 0.1% (w/v) Polysorbate 80 USP) [µg/mL] | Solubility ([1]; 0.2% (w/v) Polysorbate 80 USP) [µg/mL] | Solubility ([1]; 0.3% (w/v) Polysorbate 80 USP) [µg/mL] | Solubility ([1]; 0.4% (w/v) Polysorbate 80 USP) [µg/mL] | Solubility ([1]; 0.5% (w/v) Polysorbate 80 USP) [µg/mL] | Solubility ([1]; 0.8% (w/v) Polysorbate 80 USP) [µg/mL] | Solubility ([1]; 1.0% (w/v) Polysorbate 80 USP) [µg/mL] | Solubility ([1]; 1.5% (w/v) Polysorbate 80 USP) [µg/mL] | Solubility ([1]; 2.0% (w/v) Polysorbate 80 USP) [µg/mL] | Solubility ([1]; 2.5% (w/v) Polysorbate 80 USP) [µg/mL] | Solubility ([1]; 3.0% (w/v) Polysorbate 80 USP) [µg/mL] | Solubility ([1]; 3.5% (w/v) Polysorbate 80 USP) [µg/mL] | Solubility ([1]; 4.0% (w/v) Polysorbate 80 USP) [µg/mL] | Solubility ([1]; 4.5% (w/v) Polysorbate 80 USP) [µg/mL] | Solubility ([1]; 5.0% (w/v) Polysorbate 80 USP) [µg/mL] | Solubility ([1]; 7.0% (w/v) Polysorbate 80 USP) [µg/mL] | water solubility ([1]; presence of a relatively low concentration of Polysorbate 80)
1 | CC(=O)Oc1cc(O[C@H](C)CCCc2ccccc2)cc2c1[C@@H]1C[C@H](O)CC[C@H]1[C@H](C)N2 [Levonantradol, [6S-[3S*,6-alpha,6a-alpha,9-alpha,10a-beta]]-5,6,6a,7,8,9,10,10a-octahydro-6-methyl-3-(1-methyl-4-phenylbutoxy)-1,9-phenanthridinediol 1-acetate, hydrochloride] | reduced water solubility with decreasing temperature | subject to decomposition upon storage | completely stable | – | – | – | – | – | – | – | – | – | – | – | – | – | – | – | – | –
2 | CC(=O)Oc1cc(O[C@H](C)CCCc2ccccc2)cc2c1[C@@H]1C[C@H](O)CC[C@H]1[C@H](C)N2 [Levonantradol.HC1, [6S-[3S*,6-alpha,6a-alpha,9-alpha,10a-beta]]-5,6,6a,7,8,9,10,10a-octahydro-6-methyl-3-(1-methyl-4-phenylbutoxy)-1,9-phenanthridinediol 1-acetate, hydrochloride] | – | – | – | 2.2 | 67 | 130 | 290 | 430 | 880 | 1230 | 2040 | 2850 | 3810 | 4440 | 5600 | 6300 | 6990 | 7550 | 11280 | markedly increased
3 | CC(=O)Oc1cc(O[C@H](C)CCCc2ccccc2)cc2c1[C@@H]1C[C@H](O)CC[C@H]1[C@H](C)N2C [N-methyllevonantradol] | reduced water solubility with decreasing temperature | subject to decomposition upon storage | – | – | – | – | – | – | – | – | – | – | – | – | – | – | – | – | – | –
